# Measurements: patent publication US11878965B2, “Inhibitors of peptidylarginine deiminases” (Gilead Sciences, Inc., priority 2020, dated 2024)
# Target: human PAD4 (Homo sapiens (Human), UniProt Q9UM07)
# Test: In Vitro PAD4 BAEE Biochemical Assay
# Conditions: human PAD4, BAEE substrate; 5 nM PAD4, 2 mM calcium chloride, 3 mM BAEE; geometric mean of multiple experiments
# In short: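 Recombinant human PAD4 (His-SUMO tag removed, E. coli-expressed), 5 nM, preincubated with compound and 2 mM CaCl2 30 min at 25 °C in MOPS pH 7.6 with DTT; 3 mM BAEE added for 2 h at 25 °C, EDTA stop. Released ammonia detected by o-phthalaldehyde/DTT fluorescence (ex 405, em 535 nm).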
# human PAD4, sequence (Q9UM07 2-663): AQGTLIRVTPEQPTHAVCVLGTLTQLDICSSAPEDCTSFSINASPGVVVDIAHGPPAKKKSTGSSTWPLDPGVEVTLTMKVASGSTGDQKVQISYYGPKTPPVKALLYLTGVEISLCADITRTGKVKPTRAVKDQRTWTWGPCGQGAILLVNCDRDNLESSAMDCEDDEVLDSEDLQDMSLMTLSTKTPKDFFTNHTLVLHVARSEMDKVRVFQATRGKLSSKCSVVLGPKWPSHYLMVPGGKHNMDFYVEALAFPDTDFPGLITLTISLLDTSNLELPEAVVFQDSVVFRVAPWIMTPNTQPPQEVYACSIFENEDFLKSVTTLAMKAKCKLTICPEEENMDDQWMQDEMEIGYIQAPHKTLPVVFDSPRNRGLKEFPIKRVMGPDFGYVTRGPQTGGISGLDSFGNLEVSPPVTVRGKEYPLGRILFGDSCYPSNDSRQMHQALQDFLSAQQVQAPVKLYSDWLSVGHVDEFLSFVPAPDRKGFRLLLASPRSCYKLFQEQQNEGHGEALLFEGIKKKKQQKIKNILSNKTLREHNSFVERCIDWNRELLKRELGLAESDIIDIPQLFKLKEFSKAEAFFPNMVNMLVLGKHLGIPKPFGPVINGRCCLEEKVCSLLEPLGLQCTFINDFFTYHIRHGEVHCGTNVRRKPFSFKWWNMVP
row,SMILES,IC50
1,"CS(=O)(=O)N(c1ccc2cc(-c3nc4cc(C(=O)N5C[C@H]6CC[C@@H]5[C@@H]6N)ccc4n3C3CC3)n(CC3CC3)c2n1)C(F)F [Example 55, N-(2-(5-((1R,4R,7R)-7-amino-2-azabicyclo[2.2.1]heptane-2-carbonyl)-1-cyclopropyl-1H-benzo[d]imidazol-2-yl)-1-(cyclopropylmethyl)-1H-pyrrolo[2,3-b]pyridin-6-yl)-N-(difluoromethyl) methanesulfonamide]",0.0896 µM
2,"CS(=O)(=O)N(c1ccc2cc(-c3nc4cc(C(=O)N5[C@@H]6CC[C@@H](N)[C@H]5CC6)ccc4n3C3CC3)n(CC3CC3)c2n1)C(F)F [Example 56, N-(2-(5-((1R,2R,5R)-2-amino-8-azabicyclo[3.2.1]octane-8-carbonyl)-1-cyclopropyl-1H-benzo[d]imidazol-2-yl)-1-(cyclopropylmethyl)-1H-pyrrolo[2,3-b]pyridin-6-yl)-N-(difluoromethyl) methanesulfonamide]",0.0362 µM
3,"Cc1cc2c(cc1C(=O)N1C[C@H]3CC[C@@H]1[C@@H]3N)nc(-c1cc3ccc(N(C(F)F)S(C)(=O)=O)nc3n1CC1CC1)n2C [Example 57, N-(2-(5-((1R,4R,7R)-7-amino-2-azabicyclo[2.2.1]heptane-2-carbonyl)-1,6-dimethyl-1H-benzo[d]imidazol-2-yl)-1-(cyclopropylmethyl)-1H-pyrrolo[2,3-b]pyridin-6-yl)-N-(difluoromethyl) methanesulfonamide]",11.2 µM
4,"Cc1cc2c(cc1C(=O)N1CCC[C@@H](N)C1)nc(-c1cc3ccc(N(C(F)F)S(C)(=O)=O)nc3n1CC1CC1)n2C [Example 58, (R)-N-(2-(5-(3-aminopiperidine-1-carbonyl)-1,6-dimethyl-1H-benzo[d]imidazol-2-yl)-1-(cyclopropylmethyl)-1H-pyrrolo [2,3-b]pyridin-6-yl)-N-(difluoromethyl) methanesulfonamide]",4.34 µM
5,"Cc1cc2c(cc1C(=O)N1C[C@H]3CC[C@@H]1[C@@H]3N)nc(-c1cc3ccc(N(C(F)F)S(C)(=O)=O)nc3n1CC1CC1)n2C1CC1 [Example 59, N-(2-(5-((1R,4R,7R)-7-amino-2-azabicyclo[2.2.1]heptane-2-carbonyl)-1-cyclopropyl-6-methyl-1H-benzo[d]imidazol-2-yl)-1-(cyclopropylmethyl)-1H-pyrrolo [2,3-b]pyridin-6-yl)-N-(difluoromethyl) methanesulfonamide]",9.41 µM
6,"Cc1cc2c(cc1C(=O)N1CCC[C@@H](N)C1)nc(-c1cc3ccc(N(C(F)F)S(C)(=O)=O)nc3n1CC1CC1)n2C1CC1 [Example 60, (R)-N-(2-(5-(3-aminopiperidine-1-carbonyl)-1-cyclopropyl-6-methyl-1H-benzo[d]imidazol-2-yl)-1-(cyclopropylmethyl)-1H-pyrrolo[2,3-b]pyridin-6-yl)-N-(difluoromethyl) methanesulfonamide]",2.21 µM
7,"COc1cc(C(=O)N2C[C@@H]3CC[C@@](N)(C3)C2)cc2nc(-c3cc4ccc(N(C(F)F)S(C)(=O)=O)nc4n3CC3CC3)n(C)c12 [Example 61, N-(2-(5-((1R,5R)-1-amino-3-azabicyclo[3.2.1]octane-3-carbonyl)-7-methoxy-1-methyl-1H-benzo[d]imidazol-2-yl)-1-(cyclopropylmethyl)-1H-pyrrolo[2,3-b]pyridin-6-yl)-N-(difluoromethyl) methanesulfonamide]",36.8 µM
8,"COc1cc(C(=O)N2[C@H]3CC[C@@H]2[C@H](N)C3)cc2nc(-c3cc4ccc(N(C(F)F)S(C)(=O)=O)nc4n3CC3CC3)n(C3CC3)c12 [Example 64, N-(2-(5-((1R,2R,4S)-2-amino-7-azabicyclo[2.2.1]heptane-7-carbonyl)-1-cyclopropyl-7-methoxy-1H-benzo[d]imidazol-2-yl)-1-(cyclopropylmethyl)-1H-pyrrolo [2,3-b]pyridin-6-yl)-N-(difluoromethyl) methanesulfonamide]",0.128 µM
9,"CS(=O)(=O)N(c1ccc2cc(-c3nc4cc(C(=O)N5[C@H]6CC[C@@H]5[C@H](N)C6)ccc4n3C3CC3)n(CC3CC3)c2n1)C(F)F [Example 65, N-(2-(5-((1R,2R,4S)-2-amino-7-azabicyclo[2.2.1]heptane-7-carbonyl)-1-cyclopropyl-1H-benzo[d]imidazol-2-yl)-1-(cyclopropylmethyl)-1H-pyrrolo[2,3-b]pyridin-6-yl)-N-(difluoromethyl) methanesulfonamide]",0.047 µM
10,"COc1cc(C(=O)N2CCC3(CCC3N)C2)cc2nc(-c3cc4ccc(N(C(F)F)S(C)(=O)=O)nc4n3CC3CC3)n(C)c12 (stereo not drawn) [Example 66, N-(2-(5-(1-amino-6-azaspiro[3.4]octane-6-carbonyl)-7-methoxy-1-methyl-1H-benzo[d]imidazol-2-yl)-1-(cyclopropylmethyl)-1H-pyrrolo[2,3-b]pyridin-6-yl)-N-(difluoromethyl) methanesulfonamide]",21.7 µM
11,"COc1cc(C(=O)N2CC3(CCNC3)C2)cc2nc(-c3cc4ccc(N(C(F)F)S(C)(=O)=O)nc4n3CC3CC3)n(C)c12 [Example 67, N-(1-(cyclopropylmethyl)-2-(7-methoxy-1-methyl-5-(2,6-diazaspiro[3.4]octane-2-carbonyl)-1H-benzo[d]imidazol-2-yl)-1H-pyrrolo[2,3-b]pyridin-6-yl)-N-(difluoromethyl) methanesulfonamide]",5.08 µM
12,"COc1cc(C(=O)N2CCCC3(CCCCN3)C2)cc2nc(-c3cc4ccc(N(C(F)F)S(C)(=O)=O)nc4n3CC3CC3)n(C)c12 (stereo not drawn) [Example 68, N-(1-(cyclopropylmethyl)-2-(7-methoxy-1-methyl-5-(1,8-diazaspiro[5.5]undecane-8-carbonyl)-1H-benzo[d]imidazol-2-yl)-1H-pyrrolo[2,3-b]pyridin-6-yl)-N-(difluoromethyl) methanesulfonamide]",50 µM
13,"COc1cc(C(=O)N2CC[C@@H]3OCCN[C@@H]3C2)cc2nc(-c3cc4ccc(N(C(F)F)S(C)(=O)=O)nc4n3CC3CC3)n(C3CC3)c12 [Example 69, N-(2-(1-cyclopropyl-7-methoxy-5-((4aR,8aS)-octahydro-2H-pyrido[4,3-b][1,4]oxazine-6-carbonyl)-1H-benzo[d]imidazol-2-yl)-1-(cyclopropylmethyl)-1H-pyrrolo[2,3-b]pyridin-6-yl)-N-(difluoromethyl) methanesulfonamide]",50 µM
14,"COc1cc(C(=O)N[C@H]2CNC[C@@H]2NC(C)=O)cc2nc(-c3cc4ccc(N(C(F)F)S(C)(=O)=O)nc4n3CC3CC3)n(C)c12 [Example 70, N-((3S,4S)-4-acetamidopyrrolidin-3-yl)-2-(1-(cyclopropylmethyl)-6-((N-(difluoromethyl)methyl)sulfonamido)-1H-pyrrolo[2,3-b]pyridin-2-yl)-7-methoxy-1-methyl-1H-benzo[d]imidazole-5-carboxamide]",39.4 µM
15,"COc1cc(C(=O)N[C@@H]2CCNC2)cc2nc(-c3cc4ccc(N(C(F)F)S(C)(=O)=O)nc4n3CC3CC3)n(C)c12 [Example 72, (R)-2-(1-(cyclopropylmethyl)-6-((N-(difluoromethyl)methyl)sulfonamido)-1H-pyrrolo[2,3-b]pyridin-2-yl)-7-methoxy-1-methyl-N-(pyrrolidin-3-yl)-1H-benzo[d] imidazole-5-carboxamide]",20.9 µM
16,"COc1cc(C(=O)N2CC3CCCC3(N)C2)cc2nc(-c3cc4ccc(N(C(F)F)S(C)(=O)=O)nc4n3CC3CC3)n(C)c12 (stereo not drawn) [Example 73, N-(2-(5-(3a-aminooctahydrocyclopenta[c]pyrrole-2-carbonyl)-7-methoxy-1-methyl-1H-benzo[d]imidazol-2-yl)-1-(cyclopropylmethyl)-1H-pyrrolo[2,3-b]pyridin-6-yl)-N-(difluoromethyl) methanesulfonamide]",7.2 µM
17,"COc1cc(C(=O)N2CCCC3(CCCN3)C2)cc2nc(-c3cc4ccc(N(C(F)F)S(C)(=O)=O)nc4n3CC3CC3)n(C)c12 (stereo not drawn) [Example 74, N-(1-(cyclopropylmethyl)-2-(7-methoxy-1-methyl-5-(1,7-diazaspiro[4.5]decane-7-carbonyl)-1H-benzo[d]imidazol-2-yl)-1H-pyrrolo[2,3-b]pyridin-6-yl)-N-(difluoromethyl) methanesulfonamide]",50 µM
18,"COc1cc(C(=O)N2CCCC3(CCN3)C2)cc2nc(-c3cc4ccc(N(C(F)F)S(C)(=O)=O)nc4n3CC3CC3)n(C)c12 (stereo not drawn) [Example 75, N-(1-(cyclopropylmethyl)-2-(7-methoxy-1-methyl-5-(1,6-diazaspiro[3.5]nonane-6-carbonyl)-1H-benzo[d]imidazol-2-yl)-1H-pyrrolo[2,3-b]pyridin-6-yl)-N-(difluoromethyl) methanesulfonamide]",50 µM
19,"COc1cc(C(=O)N2CC3(CCCCN3)C2)cc2nc(-c3cc4ccc(N(C(F)F)S(C)(=O)=O)nc4n3CC3CC3)n(C)c12 [Example 76, N-(1-(cyclopropylmethyl)-2-(7-methoxy-1-methyl-5-(2,5-diazaspiro[3.5]nonane-2-carbonyl)-1H-benzo[d]imidazol-2-yl)-1H-pyrrolo[2,3-b]pyridin-6-yl)-N-(difluoromethyl) methanesulfonamide]",50 µM
20,"COc1cc(C(=O)N2CC3(CCCN3)C2)cc2nc(-c3cc4ccc(N(C(F)F)S(C)(=O)=O)nc4n3CC3CC3)n(C)c12 [Example 77, N-(1-(cyclopropylmethyl)-2-(7-methoxy-1-methyl-5-(2,5-diazaspiro[3.4]octane-2-carbonyl)-1H-benzo[d]imidazol-2-yl)-1H-pyrrolo[2,3-b]pyridin-6-yl)-N-(difluoromethyl) methanesulfonamide]",50 µM
21,"COc1cc(C(=O)N2CC3CCC3(N)C2)cc2nc(-c3cc4ccc(N(C(F)F)S(C)(=O)=O)nc4n3CC3CC3)n(C)c12 (stereo not drawn) [Example 78, N-(2-(5-(1-amino-3-azabicyclo[3.2.0]heptane-3-carbonyl)-7-methoxy-1-methyl-1H-benzo[d]imidazol-2-yl)-1-(cyclopropylmethyl)-1H-pyrrolo[2,3-b]pyridin-6-yl)-N-(difluoromethyl) methanesulfonamide]",0.655 µM
